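Test compounds were applied to cells in 96-well plates for 48 hours at 5 doses. GI50 is the concentration that inhibits growth by half. TGI denotes the concentration required for complete inhibition of growth.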
Legend:
Experiment in all cases: inhibition of tumour cell growth, NCI panel, 48 h
MDA-MB-468 breast = tested on: MDA-MB-468 breast
SK-MEL-28 melanoma = tested on: SK-MEL-28 melanoma
SF-295 CNS = tested on: SF-295 CNS
NCI-H522 lung = tested on: NCI-H522 lung
HCT-116 colon = tested on: HCT-116 colon
CAKI-1 renal = tested on: CAKI-1 renal
PC-3 prostate = tested on: PC-3 prostate
NCI-H460 lung = tested on: NCI-H460 lung
SW-620 colon = tested on: SW-620 colon
MALME-3M melanoma = tested on: MALME-3M melanoma
SR leukemia = tested on: SR leukemia
HCT-15 colon = tested on: HCT-15 colon
OVCAR-5 ovarian = tested on: OVCAR-5 ovarian
UACC-257 melanoma = tested on: UACC-257 melanoma
SK-MEL-5 melanoma = tested on: SK-MEL-5 melanoma
ACHN renal = tested on: ACHN renal
SK-OV-3 ovarian = tested on: SK-OV-3 ovarian
BT-549 breast = tested on: BT-549 breast
DU-145 prostate = tested on: DU-145 prostate
A549 NSCLC = tested on: A549 NSCLC
CCRF-CEM leukemia = tested on: CCRF-CEM leukemia
KM12 colon = tested on: KM12 colon
HT29 colon = tested on: HT29 colon
UACC-62 melanoma = tested on: UACC-62 melanoma
UO-31 renal = tested on: UO-31 renal
MDA-MB-231 breast = tested on: MDA-MB-231 breast
SK-MEL-2 melanoma = tested on: SK-MEL-2 melanoma
RPMI-8226 leukemia = tested on: RPMI-8226 leukemia
SF-268 CNS = tested on: SF-268 CNS
HOP-92 NSCLC = tested on: HOP-92 NSCLC
SN12C renal = tested on: SN12C renal
HL-60(TB) leukemia = tested on: HL-60(TB) leukemia
RXF 393 renal = tested on: RXF 393 renal
U251 CNS = tested on: U251 CNS
M14 melanoma = tested on: M14 melanoma
TK-10 renal = tested on: TK-10 renal
COLO 205 colon = tested on: COLO 205 colon
NCI-H226 lung = tested on: NCI-H226 lung
T-47D breast = tested on: T-47D breast
MOLT-4 leukemia = tested on: MOLT-4 leukemia
HCC-2998 colon = tested on: HCC-2998 colon
786-0 renal = tested on: 786-0 renal
IGROV1 ovarian = tested on: IGROV1 ovarian
A498 renal = tested on: A498 renal
NCI-H23 lung = tested on: NCI-H23 lung
EKVX NSCLC = tested on: EKVX NSCLC
SF-539 CNS = tested on: SF-539 CNS
OVCAR-4 ovarian = tested on: OVCAR-4 ovarian
OVCAR-8 ovarian = tested on: OVCAR-8 ovarian
SNB-19 CNS = tested on: SNB-19 CNS
MDA-MB-435 = tested on: MDA-MB-435
HOP-62 NSCLC = tested on: HOP-62 NSCLC
K-562 leukemia = tested on: K-562 leukemia
HS 578T breast = tested on: HS 578T breast
SNB-75 CNS = tested on: SNB-75 CNS
MCF7 breast = tested on: MCF7 breast
OVCAR-3 ovarian = tested on: OVCAR-3 ovarian

## N#Cc1c(-c2ccc(Cl)cc2)nc2n[nH]c(-c3ccc(Cl)cc3)c2c1-c1ccc(C(F)(F)F)cc1
MDA-MB-468 breast
  GI50: 2.59 µM
  TGI: 9.55 µM
SK-MEL-28 melanoma
  GI50: 2.68 µM
  TGI: 8.7 µM
SF-295 CNS
  GI50: 2.62 µM
  TGI: 8.3 µM
NCI-H522 lung
  GI50: 2.03 µM
  TGI: 5.68 µM
HCT-116 colon
  GI50: 1.61 µM
  TGI: 3.74 µM
CAKI-1 renal
  GI50: 2 µM
  TGI: 7.2 µM
PC-3 prostate
  GI50: 2.25 µM
  TGI: 9.31 µM
NCI-H460 lung
  GI50: 2.08 µM
  TGI: 4.57 µM
SW-620 colon
  GI50: 2.76 µM
  TGI: 10.8 µM
MALME-3M melanoma
  GI50: 1.98 µM
  TGI: 4.86 µM
SR leukemia
  GI50: 1.69 µM
  TGI: 4.42 µM
HCT-15 colon
  GI50: 2.57 µM
  TGI: 10.4 µM
OVCAR-5 ovarian
  GI50: 2.16 µM
  TGI: 5.22 µM
UACC-257 melanoma
  GI50: 2.72 µM
  TGI: 8 µM
SK-MEL-5 melanoma
  GI50: 1.92 µM
  TGI: 3.79 µM
ACHN renal
  GI50: 2.85 µM
  TGI: 9.97 µM
SK-OV-3 ovarian
  GI50: 3.03 µM
  TGI: 10.2 µM
BT-549 breast
  GI50: 2.17 µM
  TGI: 4.78 µM
DU-145 prostate
  GI50: 3.6 µM
  TGI: 15.9 µM
A549 NSCLC
  GI50: 3.45 µM
  TGI: 12 µM
CCRF-CEM leukemia
  GI50: 2.18 µM
  TGI: 6.57 µM
KM12 colon
  GI50: 2.49 µM
  TGI: 8.32 µM
HT29 colon
  GI50: 2.77 µM
  TGI: 10.9 µM
UACC-62 melanoma
  GI50: 1.87 µM
  TGI: 5.57 µM
UO-31 renal
  GI50: 2.1 µM
  TGI: 8.61 µM
MDA-MB-231 breast
  GI50: 2.12 µM
  TGI: 4.64 µM
SK-MEL-2 melanoma
  GI50: 1.72 µM
  TGI: 3.26 µM
RPMI-8226 leukemia
  GI50: 1.93 µM
  TGI: 6.27 µM
SF-268 CNS
  GI50: 2.92 µM
  TGI: 11.5 µM
HOP-92 NSCLC
  GI50: 1.57 µM
  TGI: 4.37 µM
SN12C renal
  GI50: 2.59 µM
  TGI: 8.35 µM
HL-60(TB) leukemia
  GI50: 1.79 µM
  TGI: 4.79 µM
RXF 393 renal
  GI50: 2.64 µM
  TGI: 9.54 µM
U251 CNS
  GI50: 3.03 µM
  TGI: 11.2 µM
M14 melanoma
  GI50: 2.17 µM
  TGI: 5.53 µM
TK-10 renal
  GI50: 3.99 µM
  TGI: 15.6 µM
COLO 205 colon
  GI50: 1.71 µM
  TGI: 3.24 µM
NCI-H226 lung
  GI50: 2.37 µM
  TGI: 8.97 µM
T-47D breast
  GI50: 2.53 µM
  TGI: 8.38 µM
MOLT-4 leukemia
  GI50: 1.72 µM
  TGI: 6.12 µM
HCC-2998 colon
  GI50: 2.29 µM
  TGI: 5.36 µM
786-0 renal
  GI50: 2.57 µM
  TGI: 7.55 µM
IGROV1 ovarian
  GI50: 1.92 µM
  TGI: 6.49 µM
A498 renal
  GI50: 3.1 µM
  TGI: 8.71 µM
NCI-H23 lung
  GI50: 2.24 µM
  TGI: 7.68 µM
EKVX NSCLC
  GI50: 2.71 µM
  TGI: 11.4 µM
SF-539 CNS
  GI50: 1.85 µM
  TGI: 3.76 µM
OVCAR-4 ovarian
  GI50: 2.5 µM
  TGI: 8.38 µM
OVCAR-8 ovarian
  GI50: 3.23 µM
  TGI: 12.5 µM
SNB-19 CNS
  GI50: 3.38 µM
  TGI: 14.7 µM
MDA-MB-435
  GI50: 2.1 µM
  TGI: 4.86 µM
HOP-62 NSCLC
  GI50: 3.06 µM
  TGI: 9.84 µM
K-562 leukemia
  GI50: 2.09 µM
  TGI: 5.91 µM
HS 578T breast
  GI50: 2.23 µM
  TGI: 7.18 µM
SNB-75 CNS
  GI50: 1.75 µM
  TGI: 6.59 µM
MCF7 breast
  GI50: 2.43 µM
  TGI: 10.8 µM
OVCAR-3 ovarian
  GI50: 2.19 µM
  TGI: 5.07 µM

— PubChem BioAssay (NCI)
